The values below come from patent publication US20090274626A1, “TARGETING TNF-alpha CONVERTING ENZYME(TACE)- DEPENDENT GROWTH FACTOR SHEDDING IN CANCER THERAPY” (The Regents of the University of California, priority 2005, published 2009).

Entries after “also recorded” stand apart in the source; their conditions may differ.

For data set [1], the system named is T4-2 cells expressing TGFαΔTM. The data set is described as follows: 3D culture of T4-2 cells expressing soluble TGFα (TGFαΔTM): colony size and morphology. Type of data set: cell-based, human. To be noted: T4-2 cells producing soluble TGFα. On the procedure:
(§1) For 3D lrECM culture, T4-2 cells were seeded at 21000 cells per cm^2 on top of Matrigel, overlaid with H14 medium containing 5% Matrigel (BD Biosciences, San Jose, Calif.), and treated with 80 nM AG1478, 20 μM TAPI-2 or the relevant vehicle controls.
(§2) Amphotropic retroviruses were generated by transfection (Lipofectamine; Invitrogen, Carlsbad, Calif.) of the Phoenix packaging cell line (a gift of Dr. Gary Nolan, Stanford) with pBM-IRES-Puro or derivatives containing the AREG or TGFα open reading frames. Two million phoenix cells per 6 cm dish were plated the day prior to transfection and transfected with 2 μg of the appropriate retroviral construct. Retrovirus-containing culture medium was harvested after 48 hrs, supplemented with polybrene to 5 μg/ml and added to HMT3522 cells at 30-50% confluence. Pools of stable infectants were selected in 1 μg/ml puromycin.
(§3) Cloning of pro-AREG and pro-TGFα. The open reading frames of these genes were amplified by PCR from T4-2 cDNA. […]
(§4) Quantitation of colony size in the 3D lrECM culture was performed by image analysis. […] The high resolution digital images were then analyzed using NIH Image analysis software and the cross-sectional area of each colony was determined for many colonies. This process was hand-curated to ensure that aggregates of colonies were not measured as a single colony.

Data set [2] relates to T4-2 cells expressing AREGΔTM. The data set is described as follows: 3D culture of T4-2 cells expressing soluble AREG (AREGΔTM): colony size and morphology. Type of data set: cell-based, human. To be noted: T4-2 cells producing soluble AREG. How it is done:
as §1, §2, §3, §4

Data set [3] deals with T4-2 cells. The data set is described as follows: Relative proliferation of T4-2 cells with AG 1478 with or without TAPI-2 (sensitization, FIG. 5). Type of data set: cell-based, human. To be noted: 10 μM TAPI-2; shift of AG 1478 proliferation curve. On the procedure:
FIG. 5. […] T4-2 cells were allowed to adhere to 48 well plates. Drugs were added at the indicated concentrations. Conditions were analyzed in triplicate. For comparison, all data were normalized to the 100%.
(FIG. 5) In this experiment, T4-2 cells were allowed to adhere to 48 well plates. Drugs, AG 1478 and TAPI-2, were added at various concentrations of 0.001 μM, 0.01 μM, 0.1 μM, 1 μM, 10 μM and 100 μM. Conditions were analyzed in triplicate. For comparison, all data were normalized to the 100%.

For another data set, the system named is MCF-7. The data set is described as follows: ELISA of AREG shedding from MCF-7 cells. Type of data set: cell-based, human. To be noted: MCF-7, 20 μM TAPI-2, 90 minutes. On the procedure:
(§5) FIG. 8. Suppression of growth factor shedding by TAPI-2 in a panel of breast cancer cell lines. A: Three AREG-expressing breast cancer cell lines were identified. Equal number of cells were treated with 20 μM TAPI-2 or vehicle for 90 minutes and AREG shedding was quantified by ELISA. B: Two breast cancer cell lines expressing TGFα were identified and treated as described in (A). TAPI-2 suppresses TGFα shedding.
(§6) ELISA. Equal numbers of cells were washed three times and allowed to condition medium for 90 minutes. The amount of AREG and TGFα accumulating in the medium was determined by using specific ELISA assays (R & D Systems, Minneapolis, Minn.) according to the manufacturer's instructions.
In general terms: In an ELISA, binding on a coated surface is turned into a signal by an enzyme label.

Another data set concerns HCC1500. Kind of data set: ELISA of AREG and TGFα shedding from HCC1500 cells. To be noted: HCC1500, 20 μM TAPI-2, 90 minutes. Type of data set: cell-based, human. How it is done:
as §5, §6

The subject of a further data set is ZR75B. Kind of data set: ELISA of AREG shedding from ZR75B cells. Type of data set: cell-based, human. To be noted: 20 μM TAPI-2, 90 minutes. On the procedure: as §5, §6
In data set [4] the test system is T4-2 cells. Kind of data set: 3D lrECM (Matrigel) culture of T4-2 cells: reversion of malignant phenotype, polarity, colony size. Type of data set: cell-based, human. On the procedure:
as §1
(§7) Silencer™ siRNAs against TACE (Ambion, Austin, Tex.) were also transfected in according to the Reverse Transfection protocol of Invitrogen. siRNAs against the following TACE sense strand sequences were transfected either individually (100 nM) or as a pool (33.3 nM each): […]tt (SEQ ID NO: 2), GCAGCAt[…]tt (SEQ ID NO:3) and […]tt (SEQ ID NO: 4). For 3D culture assays, T4-2 cells were trypsinized post-transfection and plated as single cells in Matrigel. Knockdown was assessed by western blot from a parallel transfection 48 hrs post-transfection. Random siRNA sequence was used as a negative control.
Indirect immunofluorescence. Colonies were solubilized from […] culture by shaking in PBS/0.05M EDTA on ice for 30 mins, fixed in 4% paraformaldehyde, permeabilized, stained with anti-α6-integrin (Chemicon, Temecula, Calif.) and counterstained with DAPI.
Quantitation of colony size in the 3D lrECM culture was performed by image analysis. Representative images were captured using a digital camera attached to a phase contrast microscope. The high resolution digital images were then analyzed using NIH Image analysis software and the cross-sectional area of each colony was determined for many colonies. This process was hand-curated to ensure that aggregates of colonies were not measured as a single colony.

A further data set concerns S1 cells. Kind of data set: Acinar morphogenesis of S1 cells in the presence of soluble EGF. Type of data set: cell-based, human. To be noted: data not shown. On the procedure: Cell culture All reagents were purchased from SIGMA (St. Louis, Mo.) except where otherwise noted. HMT3522 cells were cultivated on 2D and 3D substrata in H14 medium, a 50:50 mix of DMEM/F12 (UCSF Cell culture Facility, San Francisco, Calif.) supplemented with 5 μg/ml prolactin, 250 ng/ml insulin, 1.4×10^−6 M hydrocortisone, 10^−10 M β-estradiol, 2.6 ng/ml sodium selenite and 10 μg/ml transferrin. S1 cells were additionally supplemented with 10 ng/ml EGF. In various experiments, cells were supplemented with AREG, TACE, TGFα. In all cases, AREG and TGFα were used at the same molar concentration as EGF ([…]).

The subject of data set [5] is T4-2 cells. The data set is described as follows: ELISA of EGFR ligands in conditioned medium of T4-2 3D lrECM cultures. Type of data set: cell-based, human. To be noted: TAPI-2 treatment as printed in legend. On the procedure: as §7, §6
Data set [6] has as its system T4-2 cells. The data set is described as follows: Cytotoxicity of TAPI-2 at the concentration used. Type of data set: cell-based, human. To be noted: data not shown.
Data set [7] concerns T4-2 cells. The data set is described as follows: Proliferation assay (WST) of T4-2 cells in 2D culture. Type of data set: cell-based, human. On the procedure:
Proliferation assays. HMT3522 cells were seeded in 96 well plates and treated (in triplicate) as described in the figure legends. To determine relative growth, 0.1 volumes of WST cell proliferation analysis reagent (Roche, Indianapolis, Ind.) was added to the medium and its formazan metabolite was measured by absorbance at 460 nm.

Data set [8] deals with T4-2 cells. The data set is described as follows: ELISA of AREG and TGFα shed into conditioned medium of T4-2 cells. To be noted: TAPI-2-treated T4-2 cells. Type of data set: cell-based, human. On the procedure:
as §7, §6

The test system of a further data set is MDA-MB-468. The data set is described as follows: ELISA of TGFα shedding from MDA-MB-468 cells. To be noted: MDA-MB-468, 20 μM TAPI-2, 90 minutes. Type of data set: cell-based, human. How it is done:
as §5, §6

Data set [9] has as its system signaling kinases downstream of the EGFR. Kind of data set: Western blot of basal activity of signaling kinases downstream of the EGFR in T4-2 cells. To be noted: addition of TAPI-2. Type of data set: cell-based, human. How it is done: Western blotting. Cells were lysed in 50 mM Tris.HCl pH 7.5, 150 mM NaCl, 0.5% NP40 supplemented with protease and phosphatase inhibitors (Calbiochem, San Diego, Calif.) and clarified by centrifugation. 50 μg of each sample was fractionated by SDS-PAGE, transferred to nitrocellulose membranes and probed with antibodies against the following proteins: phospho-MAPK, Total MAPK, phospho-p70S6-Kinase, (Cell Signaling Technology, MA). E-cadherin (BD Biosciences, CA) was used as a loading control. Blots were developed using Supersignal West Femto (Pierce, Rockland, Ill.). Images were captured using a Fluor Chem 8900 imager (Alpha Innotech, San Leandro, Calif.).
(In general: A western blot detects proteins with antibodies after separation by electrophoresis.)

In the next data set the target is TACE (Homo sapiens, UniProt P78536). To be noted: cited from earlier work.
Data set [10] has as its system LPS-stimulated human peripheral blood mononuclear cells (PBMC). To be noted: cited from earlier work.

Chain of TACE (P78536 215-824): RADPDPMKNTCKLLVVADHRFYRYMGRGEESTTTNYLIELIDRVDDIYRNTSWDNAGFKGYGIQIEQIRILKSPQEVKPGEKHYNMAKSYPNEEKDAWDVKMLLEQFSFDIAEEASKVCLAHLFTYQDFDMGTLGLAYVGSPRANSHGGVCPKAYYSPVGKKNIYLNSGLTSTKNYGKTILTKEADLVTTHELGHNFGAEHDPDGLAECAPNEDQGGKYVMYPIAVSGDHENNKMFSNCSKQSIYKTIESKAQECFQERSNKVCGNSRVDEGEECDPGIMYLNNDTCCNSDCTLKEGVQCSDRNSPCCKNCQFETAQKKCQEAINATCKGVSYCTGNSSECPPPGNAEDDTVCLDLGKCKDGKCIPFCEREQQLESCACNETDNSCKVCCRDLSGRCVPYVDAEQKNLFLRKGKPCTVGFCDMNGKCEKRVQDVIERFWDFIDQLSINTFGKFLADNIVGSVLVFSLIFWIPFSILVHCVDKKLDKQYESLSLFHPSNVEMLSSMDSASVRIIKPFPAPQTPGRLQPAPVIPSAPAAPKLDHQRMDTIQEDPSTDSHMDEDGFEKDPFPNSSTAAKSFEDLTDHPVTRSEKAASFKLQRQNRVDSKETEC

As for `CC(C)C[C@H](CC(=O)NO)C(=O)N[C@H](C(=O)N[C@@H](C)C(=O)NCCN)C(C)(C)C` [TAPI-2, N—(R)-[2-(Hydroxyaminocarbonyl)methyl]-4-methylpentanoyl-L-t-butyl-alanyl-L-alanine, 2-aminoethyl Amide], the “response to TAPI-2 by criteria of colony size and morphology” value in data set [1] and in [2] was “completely resistant to TAPI-2” in each case. The “sensitization of T4-2 cells to small molecule EGFR inhibitor (AG1478)” value in the data set on T4-2 cells [3] is reported as “sensitizes T4-2 cells to the effect of the EGFR inhibitor, AG1478; also recorded: four-fold sensitization”. Also, the AREG shedding entry in the data set on MCF-7, in the data set on HCC1500 and in the data set on ZR75B was “significantly reduced ligand shedding” each time. Also, the TGFα shedding result in the data set with HCC1500 and with MDA-MB-468 was “significantly reduced ligand shedding” in each case. In addition, in the data set on T4-2 cells [4] (3D culture, TAPI-2 vs vehicle), the “restoration of epithelial polarity (basal localization of α6-integrin)” value is “restoration of epithelial polarity”. Moreover, the “colony size (cross-sectional area) vs vehicle” value in the data set on T4-2 cells [4] (3D culture, four days, p<0.001) is “significantly smaller than those formed by cells treated with vehicle alone; also recorded: significantly different from controls”. Further, in the data set on T4-2 cells [4] (3D lrECM culture, 80 nM AG1478 or 20 μM TAPI-2 vs vehicle), the “reversion of the malignant phenotype of T4-2 cells” value is reported as “resulted in a reversion of the malignant phenotype”. In addition, the “interference with normal acinar morphogenesis of S1 cells” value in the data set on S1 cells was “nor did it interfere with the ability of S1 cells to execute normal acinar morphogenesis”. The “levels of shed ligands in conditioned medium (FIG. 6C)” value in the data set with T4-2 cells [5] was “reduced”. Further, the cytotoxicity result in the data set with T4-2 cells [6] is reported as “not cytotoxic at the concentration used”. For the same compound, the “TAPI-2-induced reduction of T4-2 proliferation on addition of EGF” value in the data set with T4-2 cells [7] (2D culture, soluble/exogenous EGF added) was “overcome by addition of exogenous EGF; also recorded: completely overcome by addition of soluble EGF”. Further, the “proliferation of T4-2 cells” value in the data set on T4-2 cells [7] (2D cultures, vs 0 μM TAPI-2) is “dose-dependent decrease in proliferation; also recorded: dose-dependent reduction in T4-2 cell proliferation”. Further, the “shedding of AREG (ELISA of CM)” value in the data set on T4-2 cells [8] was “suppresses the shedding of both AREG and TGFα”. For the same compound, the “shedding of TGFα (ELISA of CM)” value in the data set with T4-2 cells [8] is “suppresses the shedding of both AREG and TGFα”. For the same compound, in [9], the “basal activities of signaling kinases downstream of the EGFR” value is given as “significantly suppressed”.
Take “TRWLVYFSRPYLVAT (synthetic peptide shown to inhibit TACE activity)”: the “binding to TACE” value with TACE was “bind to TACE”. In [10], the TNF-alpha release result is “inhibit the TNF-alpha release”.
